These results are taken from EP4667483A1, “HUMAN TRANSFERRIN RECEPTOR-BINDING PEPTIDE” (JCR Pharmaceuticals Co., Ltd., priority 2023, dated 2024).

Structures are written as SMILES. Bridge positions count the residues as written; N and C are the ends. Square brackets hold non-standard residues; d marks the D form. Peptide text beside a SMILES is read from it. * marks the point of attachment. Trp(7-aza) = N[C@@H](Cc1c[nH]c2ncccc12)C(=O)O; NMePhe(3-Cl) = CN[C@@H](Cc1cccc(Cl)c1)C(=O)O; 3Pal(6-NH2) = Nc1ccc(C[C@H](N)C(=O)O)cn1; NMeW = CN[C@@H](Cc1c[nH]c2ccccc12)C(=O)O; PEG8 = NCCOCCOCCOCCOCCOCCOCCOCCOCCC(=O)O; NMeY = CN[C@@H](Cc1ccc(O)cc1)C(=O)O; Nva(3-Et) = CCC(CC)[C@H](N)C(=O)O; PEG4 = NCCOCCOCCOCCOCCC(=O)O; Carboxymethyl = O=C(O)C*

Assay [1] concerns the target T1, human transferrin receptor (hTfR) (Homo sapiens, UniProt P02786). Put plainly: SPR measurement under pH 7.4 conditions (Biacore T200, CM3 chip, hTfR captured by His Tag antibody). It counts as binding. The settings on record: SPR, pH 7.4; peptide with the linker named in the table; read-out: hTfR SPR pH7.4 KD.
Assay [2] concerns the target T1, human transferrin receptor (hTfR). Kind of assay: SPR measurement under pH 6.0 conditions (Biacore T200, NTA chip, immobilized hTfR). It counts as binding. As to conditions: SPR, pH 6.0; peptide with the linker named in the table; read-out: hTfR SPR pH6.0 KD. For orientation: In SPR one partner is held on a chip, and binding of the other changes the refractive index at the surface.

T1 sequence (P02786 whole entry): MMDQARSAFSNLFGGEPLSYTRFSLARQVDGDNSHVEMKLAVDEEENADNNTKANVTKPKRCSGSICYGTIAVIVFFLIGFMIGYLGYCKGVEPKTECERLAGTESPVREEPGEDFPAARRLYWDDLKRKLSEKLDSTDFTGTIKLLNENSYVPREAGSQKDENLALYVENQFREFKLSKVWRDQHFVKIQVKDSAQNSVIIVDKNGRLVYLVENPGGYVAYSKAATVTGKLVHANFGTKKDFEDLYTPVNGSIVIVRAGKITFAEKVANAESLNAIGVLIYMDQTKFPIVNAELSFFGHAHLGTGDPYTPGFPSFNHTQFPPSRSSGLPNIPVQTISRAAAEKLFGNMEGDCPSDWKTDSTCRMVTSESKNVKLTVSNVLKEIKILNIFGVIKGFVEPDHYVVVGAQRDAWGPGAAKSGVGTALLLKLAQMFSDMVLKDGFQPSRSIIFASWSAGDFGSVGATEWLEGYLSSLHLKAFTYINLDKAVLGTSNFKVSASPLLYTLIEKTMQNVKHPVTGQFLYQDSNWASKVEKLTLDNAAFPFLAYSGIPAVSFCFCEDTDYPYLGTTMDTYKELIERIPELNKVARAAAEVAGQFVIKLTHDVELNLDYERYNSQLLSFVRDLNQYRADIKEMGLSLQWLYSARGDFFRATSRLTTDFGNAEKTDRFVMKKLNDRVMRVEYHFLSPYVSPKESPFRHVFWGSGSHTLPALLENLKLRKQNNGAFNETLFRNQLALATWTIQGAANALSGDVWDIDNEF

Turning to `CCC(CC)[C@@H]1NC(=O)[C@H](Cc2ccc(O)cc2)NC(=O)[C@H](Cc2ccc(N)nc2)NC(=O)[C@H](CC(N)=O)NC(=O)[C@H](Cc2c[nH]c3ccccc23)N(C)C(=O)[C@H](C(C)C)NC(=O)[C@H](Cc2cccc(Cl)c2)N(C)C(=O)[C@H](C(C)C)NC(=O)[C@H](C)NC(=O)CSC[C@@H](C(=O)NCCOCCOCCOCCOCCC(N)=O)NC(=O)[C@H](Cc2ccc(O)cc2)N(C)C(=O)[C@H](Cc2ccc(O)cc2)NC(=O)[C@H](CCCNC(=N)N)NC(=O)[C@H](CCCCN)NC(=O)[C@H]([C@@H](C)CC)NC1=O` [compound 134] ({CH2CO}-AV[NMePhe(3-Cl)]V[NMeW]N[3Pal(6-NH2)]Y[Nva(3-Et)]IKRY[NMeY]C[PEG4]-NH2; thioether N-15), the Kd (as a rule, the constant that tells how readily two partners part at equilibrium) in assay [1] is 4.58 nM; in assay [2], 3.95 nM.

Take `CC[C@H](C)[C@@H]1NC(=O)[C@H](Cc2ccc(OCC(=O)O)cc2)NC(=O)[C@H](Cc2ccc(O)cc2)NC(=O)[C@H](CC(N)=O)NC(=O)[C@H](Cc2c[nH]c3ncccc23)NC(=O)[C@H](C(C)C)NC(=O)[C@H](Cc2cccc(Cl)c2)N(C)C(=O)[C@H](C(C)C)NC(=O)[C@H](C)NC(=O)CSC[C@@H](C(=O)NCCOCCOCCOCCOCCC(N)=O)NC(=O)[C@H](Cc2ccc(O)cc2)N(C)C(=O)[C@H](CCC(=O)NCCOCCOCCOCCOCCOCCOCCOCCOCCC(=O)O)NC(=O)[C@H](CCCNC(=N)N)NC(=O)[C@H](CCC(N)=O)NC(=O)[C@H]([C@@H](C)CC)NC1=O` [compound 139] ({CH2CO}-AV[NMePhe(3-Cl)]V[Trp(7-aza)]NYY(Carboxymethyl)IIQRE(PEG8)[NMeY]C[PEG4]-NH2; thioether N-15): the Kd in assay [1] was 107 nM; in assay [2], 524 nM.

For the molecule `CC[C@H](C)[C@@H]1NC(=O)[C@H](Cc2ccc(OCC(=O)O)cc2)NC(=O)[C@H](Cc2ccc(O)cc2)NC(=O)[C@H](CC(N)=O)NC(=O)[C@H](Cc2c[nH]c3ncccc23)NC(=O)[C@H](C(C)C)NC(=O)[C@H](Cc2cccc(Cl)c2)N(C)C(=O)[C@H](C(C)C)NC(=O)[C@H](C)NC(=O)CSC[C@@H](C(=O)NCCOCCOCCOCCOCCC(N)=O)NC(=O)[C@H](Cc2ccc(O)cc2)N(C)C(=O)[C@H](Cc2cccc(C(=O)NCCOCCOCCOCCOCCOCCOCCOCCOCCC(=O)O)c2)NC(=O)[C@H](CCCNC(=N)N)NC(=O)[C@H](CCC(N)=O)NC(=O)[C@H]([C@@H](C)CC)NC1=O` [compound 140], the results for the Kd in assay [1] and in assay [2] were 5.63 nM and 22.1 nM, respectively.

In the case of `CC[C@H](C)[C@@H]1NC(=O)[C@H](Cc2ccc(OC)cc2)NC(=O)[C@H](Cc2ccc(O)cc2)NC(=O)[C@H](CC(N)=O)NC(=O)[C@H](Cc2c[nH]c3ncccc23)NC(=O)[C@H](C(C)C)NC(=O)[C@H](Cc2cccc(Cl)c2)N(C)C(=O)[C@H](C(C)C)NC(=O)[C@H](C)NC(=O)CSC[C@@H](C(=O)NCCOCCOCCOCCOCCC(N)=O)NC(=O)[C@H](Cc2ccc(O)cc2)N(C)C(=O)[C@H](CCC(=O)NCCOCCOCCOCCOCCOCCOCCOCCOCCC(=O)O)NC(=O)[C@H](CCCNC(=N)N)NC(=O)[C@H](CCC(=O)NCCOCCOCCOCCOCCOCCOCCOCCOCCC(=O)O)NC(=O)[C@H]([C@@H](C)CC)NC1=O` [compound 141] ({CH2CO}-AV[NMePhe(3-Cl)]V[Trp(7-aza)]NYY(Me)IIE(PEG8)RE(PEG8)[NMeY]C[PEG4]-NH2; thioether N-15), the dissociation constant (Kd) worked out at 142 nM in assay [1] and 212 nM in assay [2].

Take `CC[C@H](C)[C@@H]1NC(=O)[C@H](Cc2ccc(OC)cc2)NC(=O)[C@H](Cc2ccc(O)cc2)NC(=O)[C@H](CC(N)=O)NC(=O)[C@H](Cc2c[nH]c3ncccc23)NC(=O)[C@H](C(C)C)NC(=O)[C@H](Cc2cccc(Cl)c2)N(C)C(=O)[C@H](C(C)C)NC(=O)[C@H](C)NC(=O)CSC[C@@H](C(=O)NCCOCCOCCOCCOCCC(N)=O)NC(=O)[C@H](Cc2ccc(O)cc2)N(C)C(=O)[C@H](Cc2cccc(C(=O)NCCOCCOCCOCCOCCOCCOCCOCCOCCC(=O)O)c2)NC(=O)[C@H](CCCNC(=N)N)NC(=O)[C@H](CCC(=O)NCCOCCOCCOCCOCCOCCOCCOCCOCCC(=O)O)NC(=O)[C@H]([C@@H](C)CC)NC1=O` [compound 142]: the Kd is 2.15 nM in assay [1] and 17.8 nM in assay [2].

As for `CC[C@H](C)[C@@H]1NC(=O)[C@H](Cc2ccc(OCC(=O)O)cc2)NC(=O)[C@H](Cc2ccc(O)cc2)NC(=O)[C@H](CC(N)=O)NC(=O)[C@H](Cc2c[nH]c3ncccc23)NC(=O)[C@H](C(C)C)NC(=O)[C@H](Cc2cccc(Cl)c2)N(C)C(=O)[C@H](C(C)C)NC(=O)[C@H](C)NC(=O)CSC[C@@H](C(=O)NCCOCCOCCOCCOCCC(N)=O)NC(=O)[C@H](Cc2ccc(O)cc2)N(C)C(=O)[C@H](CCC(=O)NCCOCCOCCOCCOCCC(=O)O)NC(=O)[C@H](CCCNC(=N)N)NC(=O)[C@H](CCC(N)=O)NC(=O)[C@H]([C@@H](C)CC)NC1=O` [compound 143] ({CH2CO}-AV[NMePhe(3-Cl)]V[Trp(7-aza)]NYY(Carboxymethyl)IIQRE(PEG4)[NMeY]C[PEG4]-NH2; thioether N-15), the values for the Kd in assay [1] and in assay [2] were 59.1 nM and 271 nM, respectively.

As to `CC[C@H](C)[C@@H]1NC(=O)[C@H](Cc2ccc(OCC(=O)O)cc2)NC(=O)[C@H](Cc2ccc(O)cc2)NC(=O)[C@H](CC(N)=O)NC(=O)[C@H](Cc2c[nH]c3ncccc23)NC(=O)[C@H](C(C)C)NC(=O)[C@H](Cc2cccc(Cl)c2)N(C)C(=O)[C@H](C(C)C)NC(=O)[C@H](C)NC(=O)CSC[C@@H](C(=O)NCCOCCOCCOCCOCCC(N)=O)NC(=O)[C@H](Cc2ccc(O)cc2)N(C)C(=O)[C@H](Cc2cccc(C(=O)NCCOCCOCCOCCOCCC(=O)O)c2)NC(=O)[C@H](CCCNC(=N)N)NC(=O)[C@H](CCC(N)=O)NC(=O)[C@H]([C@@H](C)CC)NC1=O` [compound 144], the Kd in assay [1] worked out at 3.56 nM; in assay [2], 17.4 nM.

For the molecule `CC[C@H](C)[C@@H]1NC(=O)[C@H](Cc2ccc(OC)cc2)NC(=O)[C@H](Cc2ccc(O)cc2)NC(=O)[C@H](CC(N)=O)NC(=O)[C@H](Cc2c[nH]c3ncccc23)NC(=O)[C@H](C(C)C)NC(=O)[C@H](Cc2cccc(Cl)c2)N(C)C(=O)[C@H](C(C)C)NC(=O)[C@H](C)NC(=O)CSC[C@@H](C(=O)NCCOCCOCCOCCOCCC(N)=O)NC(=O)[C@H](Cc2ccc(O)cc2)N(C)C(=O)[C@H](CCC(=O)NCCOCCOCCOCCOCCC(=O)O)NC(=O)[C@H](CCCNC(=N)N)NC(=O)[C@H](CCC(=O)NCCOCCOCCOCCOCCC(=O)O)NC(=O)[C@H]([C@@H](C)CC)NC1=O` [compound 145] ({CH2CO}-AV[NMePhe(3-Cl)]V[Trp(7-aza)]NYY(Me)IIE(PEG4)RE(PEG4)[NMeY]C[PEG4]-NH2; thioether N-15), the Kd came to 48.5 nM in assay [1] and 199 nM in assay [2].

On to `CC[C@H](C)[C@@H]1NC(=O)[C@H](Cc2ccc(OC)cc2)NC(=O)[C@H](Cc2ccc(O)cc2)NC(=O)[C@H](CC(N)=O)NC(=O)[C@H](Cc2c[nH]c3ncccc23)NC(=O)[C@H](C(C)C)NC(=O)[C@H](Cc2cccc(Cl)c2)N(C)C(=O)[C@H](C(C)C)NC(=O)[C@H](C)NC(=O)CSC[C@@H](C(=O)NCCOCCOCCOCCOCCC(N)=O)NC(=O)[C@H](Cc2ccc(O)cc2)N(C)C(=O)[C@H](Cc2cccc(C(=O)NCCOCCOCCOCCOCCC(=O)O)c2)NC(=O)[C@H](CCCNC(=N)N)NC(=O)[C@H](CCC(=O)NCCOCCOCCOCCOCCC(=O)O)NC(=O)[C@H]([C@@H](C)CC)NC1=O` [compound 146], for which the Kd in assay [1] was determined as 2.75 nM; in assay [2], 11.4 nM.
